From ChEMBL document CHEMBL1201862, “PubChem BioAssay data set” (2004)
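Cultured in 96-well plates, cells were exposed to test compound for 48 hours across five concentrations. GI50 marks 50% less growth.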 Activity calls are given as the source filed them. Rule as the data show it: active = GI50 up to about 1.1 µM and inactive = higher.

Legend:
Test in all cases: NCI-60 cell line screen, 48 h
UACC-62 = test system: UACC-62
DU-145 = test system: DU-145
NCI-H460 = test system: NCI-H460
HCT-15 = test system: HCT-15
U-251 = test system: U-251
OVCAR-3 = test system: OVCAR-3
EKVX = test system: EKVX
OVCAR-8 = test system: OVCAR-8
SR = test system: SR
CCRF-CEM = test system: CCRF-CEM
SF-295 = test system: SF-295
SF-539 = test system: SF-539
UACC-257 = test system: UACC-257
K562 = test system: K562
SK-OV-3 = test system: SK-OV-3
COLO 205 = test system: COLO 205
Hs-578T = test system: Hs-578T
LOX IMVI = test system: LOX IMVI
OVCAR-4 = test system: OVCAR-4

SMILES	GI50 (UACC-62)	GI50 (DU-145)	GI50 (NCI-H460)	GI50 (HCT-15)	GI50 (U-251)	GI50 (OVCAR-3)	GI50 (EKVX)	GI50 (OVCAR-8)	GI50 (SR)	GI50 (CCRF-CEM)	GI50 (SF-295)	GI50 (SF-539)	GI50 (UACC-257)	GI50 (K562)	GI50 (SK-OV-3)	GI50 (COLO 205)	GI50 (Hs-578T)	GI50 (LOX IMVI)	GI50 (OVCAR-4)
CC1(C)[C@@H]2C[C@H]1C(Cc1ccc(C[C@H]3c4cc(-c5ccccn5)ncc4[C@H]4C[C@@H]3C4(C)C)cc1)c1cc(-c3ccccn3)ncc12 (stereo partly drawn)	0.67 µM (active)	2.31 µM (inactive)	0.916 µM (active)	2.9 µM	1.01 µM (active)	0.679 µM (active)	1.32 µM (inactive)	0.678 µM (active)	0.561 µM (active)	0.619 µM (active)	1.22 µM (inactive)	1.22 µM (inactive)	2.63 µM (inactive)	0.649 µM (active)	7.83 µM (inactive)	1.41 µM (inactive)	> 100 µM (inactive)	0.843 µM (active)	–
Cc1ccc(S(=O)(=O)ON2C(=O)c3cccc4cc([N+](=O)[O-])cc(c34)C2=O)cc1	49.9 µM (inactive)	89.1 µM (inactive)	19.6 µM (inactive)	71 µM	> 100 µM (inactive)	35.3 µM (inactive)	> 100 µM (inactive)	> 100 µM (inactive)	26.7 µM (inactive)	–	> 100 µM (inactive)	–	66.2 µM (inactive)	–	38.9 µM (inactive)	81.5 µM (inactive)	68.1 µM (inactive)	32 µM (inactive)	93.1 µM (inactive)
CCCCCCCCCC(=O)OCC1OC(n2cc(F)c(=O)[nH]c2=O)C(N)C(OC(=O)CCCCCCCCC)C1O (stereo not drawn)	17.9 µM (inactive)	–	19.4 µM (inactive)	18.2 µM	17.1 µM (inactive)	18.6 µM (inactive)	18.2 µM (inactive)	18.2 µM (inactive)	19.7 µM (inactive)	18.5 µM (inactive)	17.8 µM (inactive)	18.4 µM (inactive)	20 µM (inactive)	16.7 µM (inactive)	60 µM (inactive)	17.5 µM (inactive)	–	16.5 µM (inactive)	15.8 µM (inactive)
COC(=O)CC1N/C(=N\C#N)N(CCc2c[nH]c3ccccc23)C1=O (stereo not drawn)	> 100 µM (inactive)	–	> 100 µM (inactive)	> 100 µM	> 100 µM (inactive)	> 100 µM (inactive)	83 µM (inactive)	> 100 µM (inactive)	94.2 µM (inactive)	> 100 µM (inactive)	> 100 µM (inactive)	> 100 µM (inactive)	> 100 µM (inactive)	> 100 µM (inactive)	> 100 µM (inactive)	> 100 µM (inactive)	–	> 100 µM (inactive)	> 100 µM (inactive)
CCN(CC)C(=O)Cc1[nH][nH]c(=O)c1C(=O)N(CC)CC	> 100 µM (inactive)	–	> 100 µM (inactive)	> 100 µM	> 100 µM (inactive)	> 100 µM (inactive)	> 100 µM (inactive)	> 100 µM (inactive)	> 100 µM (inactive)	> 100 µM (inactive)	> 100 µM (inactive)	> 100 µM (inactive)	> 100 µM (inactive)	> 100 µM (inactive)	> 100 µM (inactive)	> 100 µM (inactive)	–	> 100 µM (inactive)	> 100 µM (inactive)
O=C(CN1C(=O)CC(c2ccccc2)(c2ccccc2)C1=O)N1CCN(CCO)CC1	> 100 µM (inactive)	> 100 µM (inactive)	–	> 100 µM	> 100 µM (inactive)	> 100 µM (inactive)	> 100 µM (inactive)	> 100 µM (inactive)	–	> 100 µM (inactive)	> 100 µM (inactive)	> 100 µM (inactive)	> 100 µM (inactive)	> 100 µM (inactive)	> 100 µM (inactive)	> 100 µM (inactive)	> 100 µM (inactive)	> 100 µM (inactive)	> 100 µM (inactive)
COC(=O)/C(=N/NC(N)=O)C(C(=O)OC)C(=O)C(=O)Nc1ccc(Cl)cc1 (stereo not drawn)	> 100 µM (inactive)	–	> 71.3 µM (inactive)	> 86.5 µM	> 100 µM (inactive)	> 100 µM (inactive)	> 100 µM (inactive)	> 100 µM (inactive)	20.8 µM (inactive)	> 50.1 µM (inactive)	> 100 µM (inactive)	> 100 µM (inactive)	> 100 µM (inactive)	> 43.6 µM (inactive)	> 100 µM (inactive)	> 100 µM (inactive)	–	> 83.2 µM (inactive)	> 100 µM (inactive)
CCCCCCCCCCCCC1NC(=N)NC2(CCCO2)C1C(=O)OC (stereo not drawn)	3.89 µM (inactive)	15.3 µM (inactive)	2.99 µM (inactive)	16.7 µM	1.64 µM (inactive)	3.52 µM (inactive)	17.5 µM (inactive)	4.68 µM (inactive)	2.33 µM (inactive)	2.06 µM (inactive)	9.73 µM (inactive)	4.9 µM (inactive)	4.3 µM (inactive)	1.91 µM (inactive)	10 µM (inactive)	3.03 µM (inactive)	2.72 µM (inactive)	1.69 µM (inactive)	5.51 µM (inactive)
